Reference: PubChem BioAssay (NCI)
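Dose response: 5 concentrations. Exposure: 48 h. Format: 96-well plates. Endpoint: linear interpolation; highest concentration if not reached. GI50 marks 50% less growth. The concentration for full growth arrest is given as TGI.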

Legend:
Assay in all cases: NCI anticancer screen, dose series, 48 h
HCT-116 colon = test system: HCT-116 colon
OVCAR-4 ovarian = test system: OVCAR-4 ovarian
SF-539 CNS = test system: SF-539 CNS
NCI-H23 lung = test system: NCI-H23 lung
786-0 renal = test system: 786-0 renal
HS 578T breast = test system: HS 578T breast
OVCAR-8 ovarian = test system: OVCAR-8 ovarian
MDA-MB-435 = test system: MDA-MB-435
EKVX NSCLC = test system: EKVX NSCLC
UACC-62 melanoma = test system: UACC-62 melanoma
HCC-2998 colon = test system: HCC-2998 colon
SNB-75 CNS = test system: SNB-75 CNS
NCI-H460 lung = test system: NCI-H460 lung
SW-620 colon = test system: SW-620 colon
NCI-H522 lung = test system: NCI-H522 lung
K-562 leukemia = test system: K-562 leukemia
LOX IMVI melanoma = test system: LOX IMVI melanoma
HCT-15 colon = test system: HCT-15 colon
CAKI-1 renal = test system: CAKI-1 renal
CCRF-CEM leukemia = test system: CCRF-CEM leukemia
HOP-92 NSCLC = test system: HOP-92 NSCLC
OVCAR-5 ovarian = test system: OVCAR-5 ovarian
DU-145 prostate = test system: DU-145 prostate
T-47D breast = test system: T-47D breast
A498 renal = test system: A498 renal
A549 NSCLC = test system: A549 NSCLC
MALME-3M melanoma = test system: MALME-3M melanoma
SF-268 CNS = test system: SF-268 CNS
SK-MEL-2 melanoma = test system: SK-MEL-2 melanoma
SK-MEL-28 melanoma = test system: SK-MEL-28 melanoma
RXF 393 renal = test system: RXF 393 renal
SK-MEL-5 melanoma = test system: SK-MEL-5 melanoma
SN12C renal = test system: SN12C renal
OVCAR-3 ovarian = test system: OVCAR-3 ovarian
U251 CNS = test system: U251 CNS
MCF7 breast = test system: MCF7 breast
HT29 colon = test system: HT29 colon
ACHN renal = test system: ACHN renal
KM12 colon = test system: KM12 colon
HL-60(TB) leukemia = test system: HL-60(TB) leukemia
UO-31 renal = test system: UO-31 renal
SK-OV-3 ovarian = test system: SK-OV-3 ovarian
SNB-19 CNS = test system: SNB-19 CNS
M14 melanoma = test system: M14 melanoma
COLO 205 colon = test system: COLO 205 colon
TK-10 renal = test system: TK-10 renal
NCI-H226 lung = test system: NCI-H226 lung
UACC-257 melanoma = test system: UACC-257 melanoma
NCI/ADR-RES ovarian = test system: NCI/ADR-RES ovarian
RPMI-8226 leukemia = test system: RPMI-8226 leukemia
MDA-MB-231 breast = test system: MDA-MB-231 breast
BT-549 breast = test system: BT-549 breast
HOP-62 NSCLC = test system: HOP-62 NSCLC
SF-295 CNS = test system: SF-295 CNS
IGROV1 ovarian = test system: IGROV1 ovarian
PC-3 prostate = test system: PC-3 prostate
MOLT-4 leukemia = test system: MOLT-4 leukemia

O=C(CCCBr)Nc1ccccc1C#C/C=C\C#Cc1ccccc1C(F)(F)F
GI50 (HCT-116 colon): 10.9 µM
TGI (HCT-116 colon): 43.7 µM
GI50 (OVCAR-4 ovarian): 10.1 µM
TGI (OVCAR-4 ovarian): 31.9 µM
GI50 (SF-539 CNS): 21.2 µM
TGI (SF-539 CNS): > 50 µM
GI50 (NCI-H23 lung): 16.2 µM
TGI (NCI-H23 lung): > 50 µM
GI50 (786-0 renal): 13.5 µM
TGI (786-0 renal): > 50 µM
GI50 (HS 578T breast): 36.5 µM
TGI (HS 578T breast): > 50 µM
GI50 (OVCAR-8 ovarian): 24.2 µM
TGI (OVCAR-8 ovarian): > 50 µM
GI50 (MDA-MB-435): 13.5 µM
TGI (MDA-MB-435): 32.6 µM
GI50 (EKVX NSCLC): 39.1 µM
TGI (EKVX NSCLC): > 50 µM
GI50 (UACC-62 melanoma): 14.1 µM
TGI (UACC-62 melanoma): > 50 µM
GI50 (HCC-2998 colon): 7.25 µM
TGI (HCC-2998 colon): 20.3 µM
GI50 (SNB-75 CNS): 9.07 µM
TGI (SNB-75 CNS): 40.6 µM
GI50 (NCI-H460 lung): 19.2 µM
TGI (NCI-H460 lung): > 50 µM
GI50 (SW-620 colon): 22.5 µM
TGI (SW-620 colon): > 50 µM
GI50 (NCI-H522 lung): 15.5 µM
TGI (NCI-H522 lung): > 50 µM
GI50 (K-562 leukemia): 21.6 µM
TGI (K-562 leukemia): > 50 µM
GI50 (LOX IMVI melanoma): 22.6 µM
TGI (LOX IMVI melanoma): > 50 µM
GI50 (HCT-15 colon): 20.6 µM
TGI (HCT-15 colon): > 50 µM
GI50 (CAKI-1 renal): 15.3 µM
TGI (CAKI-1 renal): > 50 µM
GI50 (CCRF-CEM leukemia): 15 µM
TGI (CCRF-CEM leukemia): 35.7 µM
GI50 (HOP-92 NSCLC): 19.7 µM
TGI (HOP-92 NSCLC): > 50 µM
GI50 (OVCAR-5 ovarian): > 50 µM
TGI (OVCAR-5 ovarian): > 50 µM
GI50 (DU-145 prostate): > 50 µM
TGI (DU-145 prostate): > 50 µM
GI50 (T-47D breast): > 50 µM
TGI (T-47D breast): > 50 µM
GI50 (A498 renal): 15.8 µM
TGI (A498 renal): 47.3 µM
GI50 (A549 NSCLC): 19.3 µM
TGI (A549 NSCLC): > 50 µM
GI50 (MALME-3M melanoma): 18.7 µM
TGI (MALME-3M melanoma): > 50 µM
GI50 (SF-268 CNS): 35.3 µM
TGI (SF-268 CNS): > 50 µM
GI50 (SK-MEL-2 melanoma): 27.8 µM
TGI (SK-MEL-2 melanoma): > 50 µM
GI50 (SK-MEL-28 melanoma): 10.3 µM
TGI (SK-MEL-28 melanoma): 25.7 µM
GI50 (RXF 393 renal): 8.35 µM
TGI (RXF 393 renal): 28.4 µM
GI50 (SK-MEL-5 melanoma): 38.3 µM
TGI (SK-MEL-5 melanoma): > 50 µM
GI50 (SN12C renal): 10.6 µM
TGI (SN12C renal): 29.9 µM
GI50 (OVCAR-3 ovarian): 13.3 µM
TGI (OVCAR-3 ovarian): 48.9 µM
GI50 (U251 CNS): 11.3 µM
TGI (U251 CNS): 31.1 µM
GI50 (MCF7 breast): 26.6 µM
TGI (MCF7 breast): > 50 µM
GI50 (HT29 colon): 8.56 µM
TGI (HT29 colon): 20.8 µM
GI50 (ACHN renal): 26.8 µM
TGI (ACHN renal): > 50 µM
GI50 (KM12 colon): 17.4 µM
TGI (KM12 colon): > 50 µM
GI50 (HL-60(TB) leukemia): 16.1 µM
TGI (HL-60(TB) leukemia): 45 µM
GI50 (UO-31 renal): 20.2 µM
TGI (UO-31 renal): > 50 µM
GI50 (SK-OV-3 ovarian): > 50 µM
TGI (SK-OV-3 ovarian): > 50 µM
GI50 (SNB-19 CNS): > 50 µM
TGI (SNB-19 CNS): > 50 µM
GI50 (M14 melanoma): 12.1 µM
TGI (M14 melanoma): 29.5 µM
GI50 (COLO 205 colon): > 50 µM
TGI (COLO 205 colon): > 50 µM
GI50 (TK-10 renal): 38.8 µM
TGI (TK-10 renal): > 50 µM
GI50 (NCI-H226 lung): 13.9 µM
TGI (NCI-H226 lung): 44.8 µM
GI50 (UACC-257 melanoma): 19.1 µM
TGI (UACC-257 melanoma): > 50 µM
GI50 (NCI/ADR-RES ovarian): 11.9 µM
TGI (NCI/ADR-RES ovarian): 29.2 µM
GI50 (RPMI-8226 leukemia): 14.2 µM
TGI (RPMI-8226 leukemia): > 50 µM
GI50 (MDA-MB-231 breast): 12.8 µM
TGI (MDA-MB-231 breast): 33.4 µM
GI50 (BT-549 breast): 19.8 µM
TGI (BT-549 breast): > 50 µM
GI50 (HOP-62 NSCLC): 4.76 µM
TGI (HOP-62 NSCLC): 20.6 µM
GI50 (SF-295 CNS): 27.6 µM
TGI (SF-295 CNS): > 50 µM
GI50 (IGROV1 ovarian): 6.75 µM
TGI (IGROV1 ovarian): 26.9 µM
GI50 (PC-3 prostate): 23.1 µM
TGI (PC-3 prostate): > 50 µM
GI50 (MOLT-4 leukemia): 16.3 µM
TGI (MOLT-4 leukemia): > 50 µM
